Assay results as given in paper PMC4612330 (Cancer Chemotherapy and Pharmacology, 2015).
Where “and” joins values, the source holds several entries; their conditions need not be identical. Equal values may be shown once. Read-outs that look alike come from different tables or passages of the source.

How the values were obtained:
[1] = phase 1 plasma pharmacokinetics, noncompartmental; conditions: for AUCt: carboplatin AUC 6 mg/mL min IV day 3, last sampling 21 h
Description: Six cycles of therapy were planned.
Plasma samples were stored at −20 °C until shipment to AbbVie. […] Plasma concentrations of carboplatin were determined using an inductively coupled plasma mass spectrometry. Standard pharmacokinetic parameters were determined using non-compartmental methods.

[2] = in humans; cited from earlier work
[3] = set-up: method as in printed; conditions: ref not given; cited from earlier work
[4] = set-up: method as in printed; conditions: ref not given; cited from earlier work; remark: listed apart in the source
[5] = system: patients with triple-negative breast cancer; conditions: with carboplatin and paclitaxel; cited from earlier work
[6] = system: patients with advanced or metastatic solid tumors; conditions: cited from earlier work
PARP activity in PBMCs = conditions: 50 mg, maintained for 24 h in 3 subjects; cited from earlier work
[7] = system: Japanese patients with NSCLC; assay: phase 1 anti-tumor response (RECIST version 1.1) of veliparib plus carboplatin and paclitaxel; type: in vivo, human
Description: A CT scan of the full chest and abdomen with images of the liver and adrenal glands was performed for all tumor assessments at screening (within 3 weeks prior to registration) and at the end of every 2 cycles (6 weeks). Tumor assessments were performed within 7 days of the scheduled date.

[8] = system: patients with advanced or metastatic NSCLC; conditions: cited from earlier work
lung cancer tumor models = conditions: preclinical lung cancer tumor models; cited from earlier work
[9] = system: major cytochrome P450 enzymes; conditions: at therapeutic doses; cited from earlier work
major drug transporters = conditions: at therapeutic doses; cited from earlier work
[10] = system: PARP activity in tumor biopsies; conditions: cited from earlier work; for PARP inhibition in tumor biopsies, average: 50 mg
[11] = system: patients with newly diagnosed ovarian cancer; set-up: method as in GOG 9923; conditions: with carboplatin, paclitaxel, and bevacizumab; study ongoing; ref GOG 9923; cited from earlier work
[12] = system: patients with triple-negative breast cancer; conditions: veliparib and carboplatin plus standard neoadjuvant therapy; cited from earlier work
[13] = carboplatin AUC 6 mg/mL min IV day 3, all patients N = 12, mean ± SD
[14] = carboplatin AUC 6 mg/mL min IV day 3, with veliparib 40 mg BID n = 3, mean ± SD
[15] = carboplatin AUC 6 mg/mL min IV day 3, with veliparib 80 mg BID n = 3, mean ± SD
[16] = carboplatin AUC 6 mg/mL min IV day 3, with veliparib 120 mg (BID) n = 6, mean ± SD
[17] = plus carboplatin and paclitaxel

N.N.O=C([O-])C1(C(=O)[O-])CCC1.[Pt+2] [Carboplatin, reference compound]
AUCt ([1]; all patients N = 12, mean ± SD): 92.5 ± 6.54 µg·h/mL
AUCt ([1]; with veliparib 40 mg BID n = 3, mean ± SD): 94.1 ± 9.91 µg·h/mL
AUCt ([1]; with veliparib 80 mg BID n = 3, mean ± SD): 95.1 ± 5.83 µg·h/mL
AUCt ([1]; with veliparib 120 mg (BID) n = 6, mean ± SD): 90.3 ± 5.45 µg·h/mL
AUC∞ [1, 13]: 103 ± 7.67 µg·h/mL
C max [1, 13]: 22.6 ± 2.25 µg/mL
T max [1, 13]: 1.0 ± 0.0 h
AUC∞ [1, 14]: 105 ± 12.3 µg·h/mL
C max [1, 14]: 22.3 ± 2.37 µg/mL
T max [1, 14]: 1.0 ± 0.0 h
AUC∞ [1, 15]: 105 ± 7.14 µg·h/mL
C max [1, 15]: 24.3 ± 1.16 µg/mL
T max [1, 15]: 1.0 ± 0.0 h
AUC∞ [1, 16]: 100 ± 5.73 µg·h/mL
C max [1, 16]: 22.0 ± 2.45 µg/mL
T max [1, 16]: 1.0 ± 0.0 h
pharmacokinetics when co-administered with 40, 80, or 120 mg veliparib BID ([1]; day 3 of cycle 1): comparable

CC(=O)O[C@H]1C(=O)[C@@]2(C)[C@H]([C@H](OC(=O)c3ccccc3)[C@]3(O)C[C@H](OC(=O)[C@H](O)[C@@H](NC(=O)c4ccccc4)c4ccccc4)C(C)=C1C3(C)C)[C@]1(OC(C)=O)CO[C@@H]1C[C@@H]2O [Paclitaxel, reference compound]
T max ([1]; human, in vivo, iv): 3.0 ± 0.0 h
AUC(0-t) ([1]; human, in vivo, iv, 200 mg/m2, AUCt): 24.8 ± 2.86 µg·h/mL
AUC(0-inf) ([1]; human, in vivo, iv, 200 mg/m2, AUC∞): 25.5 ± 2.89 µg·h/mL
Cmax ([1]; human, in vivo, iv, 200 mg/m2, C max): 6.84 ± 1.2 µg/mL
Tmax ([1]; human, in vivo, iv, 200 mg/m2, T max): 2.9 ± 0.3 h
Tmax ([1]; human, in vivo, iv, T max): 3.1 ± 0.2 h

C[C@]1(c2nc3c(C(N)=O)cccc3[nH]2)CCCN1 [Veliparib, 2-[(R)-2-methylpyrrolidin-2-yl]-1H-benzimidazole-4-carboxamide]
elimination [2]: primarily eliminated by renal excretion
permeability [3]: permeable
solubility [4]: highly soluble
dose cleared [5]: up to 200 mg BID
maximum dose of veliparib ([6]; for 7 days in addition to standard doses of carboplatin and paclitaxel): 120 mg BID
complete response (CR) ([6]; phase 1 dose-escalation study): 3%
complete response (CR), patients ([6]; phase 1 dose-escalation study): 2/68
partial response (PR) ([6]; phase 1 dose-escalation study): 16%
partial response (PR), patients ([6]; phase 1 dose-escalation study): 11/68
stable disease ([6]; phase 1 dose-escalation study): 51%
stable disease, patients ([6]; phase 1 dose-escalation study): 35/68
RPTD ([6]; with standard doses of carboplatin and paclitaxel): 100 mg BID
inhibition of PARP activity in PBMCs (PARP activity in PBMCs): Complete inhibition
AUC0–8/dose ([1]; human, in vivo): 31.4 ± 6.69 (ng h/mL)/mg
AUC∞/dose ([1]; human, in vivo): 44.2 ± 11.3 (ng h/mL)/mg
C max/dose ([1]; human, in vivo): 7.06 ± 1.29 (ng/mL)/mg
AUC0–8/dose ([1]; human, in vivo, 40 mg): 32.2 ± 9.24 (ng h/mL)/mg
AUC∞/dose ([1]; human, in vivo, 40 mg): 46.0 ± 16.8 (ng h/mL)/mg
C max/dose ([1]; human, in vivo, 40 mg): 8.18 ± 1.19 (ng/mL)/mg
AUC(0-t) ([1]; human, in vivo, 40 mg, AUC0–8): 1.29 ± 0.37 µg·h/mL
AUC(0-inf) ([1]; human, in vivo, 40 mg, AUC∞): 1.84 ± 0.671 µg·h/mL
Cmax ([1]; human, in vivo, 40 mg, C max): 0.327 ± 0.0477 µg/mL
Tmax ([1]; human, in vivo, 40 mg, T max): 2.5 ± 1.3 h
AUC0–8/dose ([1]; human, in vivo, 80 mg): 26.7 ± 2.46 (ng h/mL)/mg
AUC∞/dose ([1]; human, in vivo, 80 mg): 35.0 ± 3.33 (ng h/mL)/mg
C max/dose ([1]; human, in vivo, 80 mg): 6.01 ± 0.35 (ng/mL)/mg
AUC(0-t) ([1]; human, in vivo, 80 mg, AUC0–8): 2.14 ± 0.197 µg·h/mL
AUC(0-inf) ([1]; human, in vivo, 80 mg, AUC∞): 2.8 ± 0.266 µg·h/mL
Cmax ([1]; human, in vivo, 80 mg, C max): 0.481 ± 0.0278 µg/mL
Tmax ([1]; human, in vivo, 80 mg, T max): 3.3 ± 1.2 h
AUC0–8/dose ([1]; human, in vivo, 120 mg): 33.3 ± 6.34 (ng h/mL)/mg
AUC∞/dose ([1]; human, in vivo, 120 mg): 48.0 ± 9.72 (ng h/mL)/mg
C max/dose ([1]; human, in vivo, 120 mg): 7.03 ± 1.27 (ng/mL)/mg
dose proportionality of Cmax and AUC ([1]; human, in vivo, 120 mg): approximately dose proportional
AUC(0-t) ([1]; human, in vivo, 120 mg, AUC0–8): 3.99 ± 0.796 µg·h/mL
AUC(0-inf) ([1]; human, in vivo, 120 mg, AUC∞): 5.76 ± 1.17 µg·h/mL
Cmax ([1]; human, in vivo, 120 mg, C max): 0.844 ± 0.152 µg/mL
Tmax ([1]; human, in vivo, 120 mg, T max): 3 ± 1.1 h
pharmacokinetic profile, Japanese versus Western populations ([1]; in vivo): generally comparable
patients who developed progressive disease (PD) ([7]; 80 mg BID): One
median PFS ([7]; all dose levels): 92 days
patients who achieved PR at the first CT scan ([7]; all dose levels): 3
patients who achieved a PR ([7]; all dose levels, 11 patients): Six
overall response rate ([7]; efficacy population, 11 patients): 55%
Overall survival (OS) [8, 17]: 11.1 months
median progression-free survival (PFS) [8, 17]: 5.8 months
HR (PFS) ([8]; veliparib versus placebo, each plus carboplatin and paclitaxel): 0.71
effect on platinum-based chemotherapy (lung cancer tumor models): potentiates the effect of platinum-based chemotherapy
inhibition of major cytochrome P450 enzymes [9]: not an inhibitor
inhibition of major drug transporters (major drug transporters): not an inhibitor
PARP inhibition in tumor biopsies, average ([10]; 3–6 h after dosing (N = 3)): 75%
PARP inhibition in tumor biopsies, average ([10]; 24 h after dosing (N = 3)): 74%
inhibition of PARP activity in tumor biopsies ([10]; single dose of 25 mg, 3–6 h after dosing, 3 subjects (one value each)): 92% and 95% and 100%
dose cleared [11]: ≥ 150 mg BID
estimated pathologic complete response rate [12]: 52%
